From PubChem BioAssay (NCI)
Where “and” joins values, the source holds several entries; their conditions need not be identical. Equal values may be shown once.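 96-well plates; 48 h exposure; 5 concentrations. Endpoints by linear interpolation between flanking doses. Not reached: highest tested concentration assigned. Here, GI50 denotes the concentration required for 50% inhibition of growth. TGI: total growth inhibition.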

Tests used:
Experiment in all cases: DTP human tumour cell line panel, 48 h
NCI-H226 lung = system: NCI-H226 lung
SK-MEL-28 melanoma = system: SK-MEL-28 melanoma
HOP-62 NSCLC = system: HOP-62 NSCLC
UACC-62 melanoma = system: UACC-62 melanoma
A498 renal = system: A498 renal
BT-549 breast = system: BT-549 breast
HCT-15 colon = system: HCT-15 colon
UACC-257 melanoma = system: UACC-257 melanoma
SN12C renal = system: SN12C renal
MALME-3M melanoma = system: MALME-3M melanoma
HS 578T breast = system: HS 578T breast
KM12 colon = system: KM12 colon
NCI-H460 lung = system: NCI-H460 lung
ACHN renal = system: ACHN renal
SW-620 colon = system: SW-620 colon
NCI/ADR-RES ovarian = system: NCI/ADR-RES ovarian
SNB-19 CNS = system: SNB-19 CNS
CAKI-1 renal = system: CAKI-1 renal
MCF7 breast = system: MCF7 breast
HOP-92 NSCLC = system: HOP-92 NSCLC
MDA-MB-435 = system: MDA-MB-435
SF-295 CNS = system: SF-295 CNS
M14 melanoma = system: M14 melanoma
HCT-116 colon = system: HCT-116 colon
DU-145 prostate = system: DU-145 prostate
SK-OV-3 ovarian = system: SK-OV-3 ovarian
HCC-2998 colon = system: HCC-2998 colon
SNB-75 CNS = system: SNB-75 CNS
A549 NSCLC = system: A549 NSCLC
OVCAR-8 ovarian = system: OVCAR-8 ovarian
T-47D breast = system: T-47D breast
SR leukemia = system: SR leukemia
OVCAR-4 ovarian = system: OVCAR-4 ovarian
SK-MEL-5 melanoma = system: SK-MEL-5 melanoma
SK-MEL-2 melanoma = system: SK-MEL-2 melanoma
MOLT-4 leukemia = system: MOLT-4 leukemia
PC-3 prostate = system: PC-3 prostate
MDA-N = system: MDA-N
NCI-H23 lung = system: NCI-H23 lung
U251 CNS = system: U251 CNS
MDA-MB-231 breast = system: MDA-MB-231 breast
786-0 renal = system: 786-0 renal
OVCAR-5 ovarian = system: OVCAR-5 ovarian
LOX IMVI melanoma = system: LOX IMVI melanoma
TK-10 renal = system: TK-10 renal
NCI-H522 lung = system: NCI-H522 lung
COLO 205 colon = system: COLO 205 colon
UO-31 renal = system: UO-31 renal
CCRF-CEM leukemia = system: CCRF-CEM leukemia
SF-539 CNS = system: SF-539 CNS
HL-60(TB) leukemia = system: HL-60(TB) leukemia
SF-268 CNS = system: SF-268 CNS
EKVX NSCLC = system: EKVX NSCLC
OVCAR-3 ovarian = system: OVCAR-3 ovarian
K-562 leukemia = system: K-562 leukemia
RXF 393 renal = system: RXF 393 renal
HT29 colon = system: HT29 colon
IGROV1 ovarian = system: IGROV1 ovarian
RPMI-8226 leukemia = system: RPMI-8226 leukemia

## COc1ccc(/C=c2/[nH]c(=O)/c(=C\c3ccc(OCc4ccccc4)cn3)[nH]c2=O)cc1
NCI-H226 lung
  TGI: > 100 µM
SK-MEL-28 melanoma
  TGI: > 100 µM
HOP-62 NSCLC
  TGI: > 100 µM
UACC-62 melanoma
  TGI: > 100 µM
A498 renal
  TGI: > 100 µM
BT-549 breast
  TGI: > 100 µM
HCT-15 colon
  TGI: > 100 µM
UACC-257 melanoma
  TGI: > 100 µM
SN12C renal
  TGI: > 100 µM
MALME-3M melanoma
  TGI: > 100 µM
HS 578T breast
  TGI: > 100 µM
KM12 colon
  TGI: > 100 µM
NCI-H460 lung
  TGI: > 100 µM
ACHN renal
  TGI: > 100 µM
SW-620 colon
  TGI: > 100 µM
NCI/ADR-RES ovarian
  TGI: > 100 µM
SNB-19 CNS
  TGI: > 100 µM
CAKI-1 renal
  TGI: > 100 µM
MCF7 breast
  TGI: > 100 µM
HOP-92 NSCLC
  TGI: 80 µM
MDA-MB-435
  TGI: > 100 µM
SF-295 CNS
  TGI: > 100 µM
M14 melanoma
  TGI: > 100 µM
HCT-116 colon
  TGI: > 100 µM
DU-145 prostate
  TGI: > 100 µM
SK-OV-3 ovarian
  TGI: > 100 µM
HCC-2998 colon
  TGI: > 100 µM
SNB-75 CNS
  TGI: 61 µM
A549 NSCLC
  TGI: > 100 µM
OVCAR-8 ovarian
  TGI: > 100 µM
T-47D breast
  TGI: > 100 µM
SR leukemia
  TGI: > 100 µM
OVCAR-4 ovarian
  TGI: > 100 µM
SK-MEL-5 melanoma
  TGI: > 100 µM
SK-MEL-2 melanoma
  TGI: > 100 µM
MOLT-4 leukemia
  TGI: > 100 µM
PC-3 prostate
  TGI: > 100 µM
MDA-N
  TGI: > 100 µM
NCI-H23 lung
  TGI: > 100 µM
U251 CNS
  TGI: > 100 µM
MDA-MB-231 breast
  TGI: > 100 µM
786-0 renal
  TGI: > 100 µM
OVCAR-5 ovarian
  TGI: > 100 µM
LOX IMVI melanoma
  TGI: > 100 µM
TK-10 renal
  TGI: > 100 µM
NCI-H522 lung
  TGI: > 100 µM
COLO 205 colon
  TGI: > 100 µM
UO-31 renal
  TGI: > 100 µM
CCRF-CEM leukemia
  TGI: > 100 µM
SF-539 CNS
  TGI: > 100 µM
HL-60(TB) leukemia
  TGI: > 100 µM
SF-268 CNS
  TGI: > 100 µM
EKVX NSCLC
  TGI: > 100 µM
OVCAR-3 ovarian
  TGI: > 100 µM
K-562 leukemia
  TGI: > 100 µM
RXF 393 renal
  TGI: 83.5 µM
HT29 colon
  TGI: > 100 µM

## C=C1C(C2(C)C=CC(=O)OC3(C)COC(=O)CC32)C(OC=O)C(OC(=O)C(O)C(C)CC)C2(C)C(c3ccoc3)CC(OC(C)=O)C12O (stereo unspecified)
NCI-H226 lung
  TGI: > 100 µM
SK-MEL-28 melanoma
  TGI: > 100 µM
HOP-62 NSCLC
  TGI: > 100 µM
UACC-62 melanoma
  TGI: > 100 µM
A498 renal
  TGI: > 100 µM
BT-549 breast
  TGI: > 100 µM
HCT-15 colon
  TGI: > 100 µM
UACC-257 melanoma
  TGI: > 100 µM
SN12C renal
  TGI: > 100 µM
HS 578T breast
  TGI: > 100 µM
KM12 colon
  TGI: > 100 µM
NCI-H460 lung
  TGI: > 100 µM
ACHN renal
  TGI: > 100 µM
IGROV1 ovarian
  TGI: > 100 µM
SW-620 colon
  TGI: > 100 µM
NCI/ADR-RES ovarian
  TGI: > 100 µM
SNB-19 CNS
  TGI: > 100 µM
CAKI-1 renal
  TGI: > 100 µM
MCF7 breast
  TGI: > 100 µM
HOP-92 NSCLC
  TGI: > 100 µM
MDA-MB-435
  TGI: > 100 µM
SF-295 CNS
  TGI: > 100 µM
M14 melanoma
  TGI: > 100 µM
HCT-116 colon
  TGI: > 100 µM
DU-145 prostate
  TGI: > 100 µM
SK-OV-3 ovarian
  TGI: > 100 µM
HCC-2998 colon
  TGI: > 100 µM
SNB-75 CNS
  TGI: > 100 µM
A549 NSCLC
  TGI: > 100 µM
OVCAR-8 ovarian
  TGI: > 100 µM
T-47D breast
  TGI: > 100 µM
SR leukemia
  TGI: > 100 µM
SK-MEL-5 melanoma
  TGI: > 100 µM
SK-MEL-2 melanoma
  TGI: > 100 µM
MOLT-4 leukemia
  TGI: > 100 µM
PC-3 prostate
  TGI: > 100 µM
MDA-N
  TGI: > 100 µM
NCI-H23 lung
  TGI: > 100 µM
U251 CNS
  TGI: > 100 µM
MDA-MB-231 breast
  TGI: > 100 µM
786-0 renal
  TGI: > 100 µM
OVCAR-5 ovarian
  TGI: > 100 µM
LOX IMVI melanoma
  TGI: 88.2 µM
RPMI-8226 leukemia
  TGI: > 100 µM
TK-10 renal
  TGI: > 100 µM
NCI-H522 lung
  TGI: > 100 µM
COLO 205 colon
  TGI: > 100 µM
UO-31 renal
  TGI: > 100 µM
CCRF-CEM leukemia
  TGI: > 100 µM
SF-539 CNS
  TGI: > 100 µM
HL-60(TB) leukemia
  TGI: 9.41 µM
SF-268 CNS
  TGI: > 100 µM
EKVX NSCLC
  TGI: > 100 µM
OVCAR-3 ovarian
  TGI: > 100 µM
K-562 leukemia
  TGI: > 100 µM
RXF 393 renal
  TGI: > 100 µM
HT29 colon
  TGI: > 100 µM

## Cc1cc(-c2cc(C)c(O)c(C(C)(C)C)c2)cc(C(C)(C)C)c1O
NCI-H226 lung
  TGI: 22.6 µM and 35.9 µM
SK-MEL-28 melanoma
  TGI: 24.5 µM and 34.2 µM
HOP-62 NSCLC
  TGI: 34.5 µM and 31 µM
UACC-62 melanoma
  TGI: 26.1 µM and 26.8 µM
A498 renal
  TGI: 21.3 µM and 32.7 µM
BT-549 breast
  TGI: 27.6 µM and 26.5 µM
HCT-15 colon
  GI50: 5.13 µM and 10.8 µM
  TGI: 18.1 µM and 23.5 µM
UACC-257 melanoma
  TGI: 24.1 µM and 24.7 µM
SN12C renal
  TGI: 24.8 µM and 26.2 µM
MALME-3M melanoma
  TGI: 28.3 µM and 41.1 µM
HS 578T breast
  TGI: 27.1 µM and 32.7 µM
KM12 colon
  TGI: 20.8 µM and 21.3 µM
NCI-H460 lung
  TGI: 19.4 µM and 17.8 µM
ACHN renal
  TGI: 22.4 µM and 29.1 µM
IGROV1 ovarian
  TGI: 41.6 µM and 24.3 µM
SW-620 colon
  TGI: 25.1 µM and 70 µM
NCI/ADR-RES ovarian
  TGI: 23.5 µM and 28.2 µM
SNB-19 CNS
  TGI: 27.7 µM and 26.7 µM
CAKI-1 renal
  TGI: 22.7 µM and 27.7 µM
MCF7 breast
  TGI: 16.7 µM and 19.4 µM
HOP-92 NSCLC
  GI50: 15.1 µM and 4.92 µM
  TGI: 29.8 µM and 17.5 µM
MDA-MB-435
  TGI: 26.4 µM and 28 µM
SF-295 CNS
  TGI: 23.1 µM and 23.2 µM
M14 melanoma
  TGI: 22.4 µM and 25.4 µM
HCT-116 colon
  TGI: 19.5 µM and 22.8 µM
DU-145 prostate
  TGI: 25.7 µM and 28.5 µM
SK-OV-3 ovarian
  TGI: 29.2 µM and 30.4 µM
HCC-2998 colon
  TGI: 15.4 µM and 18.7 µM
SNB-75 CNS
  TGI: 25.4 µM and 27 µM
A549 NSCLC
  TGI: 21.4 µM and 21.3 µM
OVCAR-8 ovarian
  TGI: 31.5 µM and 26.1 µM
T-47D breast
  TGI: 20.1 µM and 20.7 µM
SR leukemia
  TGI: 18.1 µM
OVCAR-4 ovarian
  TGI: 27.6 µM and 23.8 µM
SK-MEL-5 melanoma
  TGI: 22.3 µM and 28.2 µM
SK-MEL-2 melanoma
  TGI: 19.4 µM and 25.8 µM
MOLT-4 leukemia
  TGI: 19.4 µM and 21.5 µM
PC-3 prostate
  GI50: 6.09 µM and 13.7 µM
  TGI: 19.2 µM and 26.5 µM
MDA-N
  TGI: 21.2 µM and 27.9 µM
NCI-H23 lung
  TGI: 26.2 µM and 24.7 µM
U251 CNS
  TGI: 22.4 µM and 26.4 µM
MDA-MB-231 breast
  TGI: 21.4 µM and 26.2 µM
786-0 renal
  TGI: 22.6 µM and 25.7 µM
OVCAR-5 ovarian
  TGI: 24.4 µM and 28.4 µM
LOX IMVI melanoma
  TGI: 29.4 µM and 23.6 µM
RPMI-8226 leukemia
  TGI: 45.9 µM and 50.4 µM
TK-10 renal
  TGI: 24.5 µM and 23.2 µM
NCI-H522 lung
  TGI: 22.5 µM and 28.2 µM
COLO 205 colon
  TGI: 23.1 µM and 28.9 µM
UO-31 renal
  TGI: 23 µM and 32 µM
CCRF-CEM leukemia
  TGI: 22.4 µM and 39.1 µM
SF-539 CNS
  TGI: 28.2 µM and 35.4 µM
HL-60(TB) leukemia
  TGI: 26.7 µM and 32.7 µM
SF-268 CNS
  TGI: 23.9 µM and 29 µM
EKVX NSCLC
  TGI: 22.7 µM and 28.4 µM
OVCAR-3 ovarian
  TGI: 28.4 µM and 27 µM
K-562 leukemia
  TGI: 25.4 µM and 37.5 µM
RXF 393 renal
  TGI: 25.5 µM and 26.1 µM
HT29 colon
  TGI: 12.7 µM and 16.4 µM
